Data published in patent US9765034B2, “5-halogenopyrazole biphenylcarboxamides” (BAYER CROPSCIENCE AG, priority 2012, dated 2017).

Key:
[1] = tested on: Pyrenophora teres; assay: In vivo preventive test on Pyrenophora teres (net blotch on barley); details: barley plants, preventive spray, 500 ppm, grading 14 days after contamination
Procedure: Example: In Vivo Preventive Test on Pyrenophora teres (Net Blotch on Barley) […] Barley plants (“Plaisant” variety), sown in starter cups on a 50/50 peat soil-pozzolana substrate and grown at 22° C., are treated at the 1-leaf stage (10 cm height) by spraying with the active ingredient prepared as described above. Plants, used as controls, are treated with the mixture of acetone/tween/DMSO/water not containing the active material. After 24 hours, the plants are contaminated by spraying the leaves with an aqueous suspension of Pyrenophora teres spores (12 000 spores per ml). The spores are collected from a 12-day-old culture. […] Grading (% of efficacy) is carried out 14 days after the contamination, in comparison with the control plants. Under these conditions, good (at least 70%) or total protection is observed at a dose of 500 ppm with the following compounds: […]

[2] = tested on: Pyricularia oryzae; type: in vivo; details: rice plants, preventive spray, 500 ppm, grading 6 days after contamination
[3] = tested on: Puccinia recondita; assay: In vivo preventive test on Puccinia recondita (brown rust on wheat); details: wheat plants, preventive spray, 500 ppm, grading 12 days after contamination
Procedure: Example: In Vivo Preventive Test on Puccinia recondita (Brown Rust on Wheat) […] Wheat plants (“Scipion” variety), sown in starter cups on a 50/50 peat soil-pozzolana substrate and grown at 22° C., are treated at the 1-leaf stage (10 cm height) by spraying with the active ingredient prepared as described above. Plants, used as controls, are treated with the mixture of acetone/tween/DMSO/water not containing the active material. After 24 hours, the plants are contaminated by spraying the leaves with an aqueous suspension of Puccinia […] spores (100 000 spores per ml). […] Grading (% of efficacy) is carried out 12 days after the contamination, in comparison with the control plants. Under these conditions, good (at least 70%) or total protection is observed at a dose of 500 ppm with the following compounds: […]

[4] = tested on: Sphaerotheca fuliginea; assay: In vivo preventive test on Sphaerotheca fuliginea (powdery mildew on cucurbits); details: gherkin plants, preventive spray, 500 ppm, grading 12 days after contamination
Procedure: Example: In Vivo Preventive Test on Sphaerotheca fuliginea (Powdery Mildew on Cucurbits) […] Gherkin plants (“Vert petit de Paris” variety), sown in starter cups on a 50/50 peat soil-pozzolana substrate and grown at 24° C., are treated at the Z11 cotyledon stage by spraying with the active ingredient prepared as described above. Plants, used as controls, are treated with the mixture of acetone/tween/DMSO/water not containing the active material. After 24 hours, the plants are contaminated by spraying the cotyledons with an aqueous suspension of Sphaerotheca fuliginea spores (100 000 spores per ml). The spores are collected from infected plants. […] Grading (% of efficacy) is carried out 12 days after the contamination, in comparison with the control plants. Under these conditions, good (at least 70%) or total protection is observed at a dose of 500 ppm with the following compounds: […]

[5] = tested on: Uromyces appendiculatus; assay: In vivo preventive test on Uromyces appendiculatus (bean rust); details: bean plants, preventive spray, 500 ppm, grading 11 days after contamination
Procedure: Example: In Vivo Preventive Test on Uromyces appendiculatus (Bean Rust) […] Bean plants (“Saxa” variety), sown in starter cups on a 50/50 peat soil-pozzolana substrate and grown at 24° C., are treated at the 2-leaf stage (9 cm height) by spraying with the active ingredient prepared as described above. Plants, used as controls, are treated with the mixture of acetone/tween/DMSO/water not containing the active material. After 24 hours, the plants are contaminated by spraying the leaves with an aqueous suspension of Uromyces appendiculatus spores (150 000 spores per ml). […] Grading (% of efficacy) is carried out 11 days after the contamination, in comparison with the control plants. Under these conditions, good (at least 70%) or total protection is observed at a dose of 500 ppm with the following compounds: […]

[6] = tested on: Phakopsora pachyrhizi; assay: In vivo Phakopsora test (soybeans)/preventive; details: preventive, 100 ppm of active ingredient, evaluated 7 days after inoculation
Procedure: Example: In Vivo Phakopsora Test (Soybeans)/Preventive Solvent: 24.5 parts by weight of acetone • 24.5 parts by weight of dimethylacetamide Emulsifier: • 1 part by weight of alkylaryl polyglycol ether To produce a suitable preparation of active compound, 1 part by weight of active compound is mixed with the stated amounts of solvent and emulsifier, and the concentrate is diluted with water to the desired concentration. To test for preventive activity, young plants are sprayed with the preparation of active compound at the stated rate of application. After the spray coating has dried on, the plants are inoculated with an aqueous to spore suspension of the causal agent of soybean rust (Phakopsora pachyrhizi) and stay for 24 h without light in an incubation cabinet at approximately 24° C. and a relative atmospheric humidity of 95%.

[7] = tested on: Fusarium nivale (var. majus); assay: In vivo Fusarium nivale (var. majus) test (wheat)/preventive; details: preventive, 500 ppm of active ingredient, evaluated 5 days after inoculation
Procedure: (§1) Example: In Vivo Fusarium nivale (Var. Majus)-Test (Wheat)/Preventive Solvent: 49 parts by weight of N,N-dimethylacetamide Emulsifier: 1 part by weight of alkylaryl polyglycol ether To produce a suitable preparation of active compound, 1 part by weight of active compound or active compound combination is mixed with the stated amounts of solvent and emulsifier, and the concentrate is diluted with water to the desired concentration. To test for preventive activity, young plants are sprayed with the preparation of active compound or active compound combination at the stated rate of application. After the spray coating has been dried, the plants are slightly injured by using a sandblast and afterwards to they are sprayed with a conidia suspension of Fusarium nivale (var. majus).

[8] = logP by HPLC on reversed phase columns (EEC directive 79/831 Annex V.A8); details: method [a]: LC-MS at pH 2.7, 0.1% formic acid in water / acetonitrile gradient 10% to 95%
[9] = tested on: Botrytis cinerea; assay: In vivo preventive test on Botrytis cinerea (grey mould); details: gherkin plants, preventive spray, 500 ppm, grading 4 to 5 days after contamination
Procedure: Example: In Vivo Preventive Test on Botrytis cinerea (Grey Mould) […] Gherkin plants (“Vert petit de Paris” variety), sown in starter cups on a 50/50 peat soil-pozzolana substrate and grown at 24° C., are treated at the Z11 cotyledon stage by spraying with the active ingredient prepared as described above. Plants, used as controls, are treated with the mixture of acetone/tween/DMSO/water not containing the active material. After 24 hours, the plants are contaminated by spraying the cotyledons with an aqueous suspension of cryopreserved Botrytis cinerea spores (50 000 spores per ml). The spores are suspended in a nutrient solution composed of 10 g/L of PDB, 50 g/L of D-Fructose, 2 g/L of NH4NO3 and 1 g/L of KH2PO4. […] Grading (% of efficacy) is carried out 4 to 5 days after the contamination, in comparison with the control plants. Under these conditions, good (at least 70%) or total protection is observed at a dose of 500 ppm with the following compounds: […]

[10] = tested on: Blumeria graminis fsp. hordei; assay: In vivo Blumeria test (barley)/preventive; details: preventive, 500 ppm of active ingredient, evaluated 7 days after inoculation
Procedure: as §1, with “Blumeria Test (Barley)/Preventive” for “Fusarium nivale (Var. Majus)-Test (Wheat)/Preventive”, “dusted” for “slightly injured by using a sandblast and afterwards to they are sprayed”, “spores” for “a conidia suspension”, “Blumeria graminis fsp. hordei.” for “Fusarium nivale (var. majus).”

[11] = tested on: Leptosphaeria nodorum; assay: In vivo Leptosphaeria nodorum test (wheat)/preventive; details: preventive, 500 ppm of active ingredient, evaluated 8 days after inoculation
Procedure: as §1, with “Leptosphaeria nodorum Test” for “Fusarium nivale (Var. Majus)-Test”, “are” for “are slightly injured by using a sandblast and afterwards to they are”, “spore” for “conidia”, “Leptosphaeria nodorum.” for “Fusarium nivale (var. majus).”

[12] = tested on: Septoria tritici; assay: In vivo preventive test on Septoria tritici (leaf spot on wheat); details: wheat plants, preventive spray, 500 ppm, grading 24 days after contamination
Procedure: Example: In Vivo Preventive Test on Septoria tritici (Leaf Spot on Wheat) […] Wheat plants (“Scipion” variety), sown in starter cups on a 50/50 peat soil-pozzolana substrate and grown at 22° C., are treated at the 1-leaf stage (10 cm height) by spraying with the active ingredient prepared as described above. Plants, used as controls, are treated with the mixture of acetone/tween/DMSO/water not containing the active material. After 24 hours, the plants are contaminated by spraying the leaves with an aqueous suspension of cryopreserved Septoria tritici spores (500 000 spores per ml). […] Grading (% of efficacy) is carried out 24 days after the contamination, in comparison with the control plants. Under these conditions, good (at least 70%) or total protection is observed at a dose of 500 ppm with the following compounds: […]

[13] = physchem; details: pH 2.7
[14] = tested on: Phytophthora infestans; type: in vivo; details: tomato plants, preventive spray, 500 ppm, grading 5 days after contamination

Row | Structure (SMILES) | Eff. % [1] [%] | Eff. % [2] [%] | Eff. % [3] [%] | Eff. % [4] [%] | Eff. % [5] [%] | Eff. % [6] [%] | Eff. % [7] [%] | logP [8] | Eff. % [9] [%] | Eff. % [10] [%] | Eff. % [11] [%] | Eff. % [12] [%] | chromatographic logP [13] | Eff. % [14] [%]
1 | CCON=C(c1ccc(-c2ccccc2NC(=O)c2c(C(F)F)nn(C)c2F)cc1)C(F)(F)F [Example 29] | 97 | 83 | 97 | 100 | 100 | 91 | 86 | 4.46[a] | – | – | – | – | – | –
2 | CCON=Cc1ccc(-c2ccccc2NC(=O)c2c(C(F)F)nn(C)c2F)cc1 [Example 7] | 100 | 90 | 94 | 100 | 100 | – | – | 3.87[a] | 85 | 100 | 90 | – | – | –
3 | CON=Cc1ccc(-c2ccccc2NC(=O)c2c(C(F)F)nn(C)c2Cl)cc1 [Example 8] | 97 | 80 | 100 | 100 | 100 | – | – | 4.18[a] | 73 | 100 | – | 100 | – | –
4 | CON=Cc1ccc(-c2ccccc2NC(=O)c2c(C(F)F)nn(C)c2F)cc1 [Example 9, 5-fluoro-3-(difluoromethyl)-N-{4′-[(methoxyimino)methyl]biphenyl-2-yl}-1-methyl-1H-pyrazole-4-carboxamide] | 79 | 80 | 100 | 100 | 100 | – | – | – | – | – | – | 80 | 3.46 | –
5 | C#CCON=Cc1ccc(-c2ccccc2NC(=O)c2c(C(F)F)nn(C)c2F)cc1 [Example 4] | 100 | 80 | 100 | 100 | 100 | – | 80 | 3.55[a] | – | – | – | 95 | – | 100
